# According to EP0489581A2, “Cosmetic composition” (UNILEVER PLC, priority 1990, dated 1992):
# Tests used:
# hair growth = test: Observation of hair growth with ethyl nicotinate in a shampoo; format: in vivo; conditions: included in a shampoo, in the absence of any other hair growth promoter
# head, forehead and neck = test: Half-head wash with ethyl nicotinate shampoo against placebo shampoo (erythema meter, Cyclops pyrometer, sensations); format: in vivo, human
# Description: EXPERIMENTS WITH ETHYL NICOTINATE ESTER IN SHAMPOO Five subjects washed one side of the head, forehead and neck with a shampoo the same as in Example 5 but containing a varying level of ethyl nicotinate for a period ranging from one to five minutes, whilst the other side was washed with a placebo shampoo of corresponding composition. The changes occurring on the various symmetrical sites around the head were assessed with the erythema meter and a "Cyclops" pyrometer in sequence. The readings were continued for between 45 minutes and one hour.
structure (smiles),measurement,setting,value
"CCOC(=O)c1cccnc1 [EtNic, ethyl nicotinate]",hair growth,hair growth,promote hair growth
same,temperature,"head, forehead and neck; active sites against placebo sites, Cyclops pyrometer, wash of one to five minutes",either rose or did not fall so low as the placebo sites
same,redness,"head, forehead and neck; active sites against placebo sites, erythema meter, wash of one to five minutes",increased the redness
same,"longer term sensations of a pleasant nature, duration after treatment","head, forehead and neck; crown of the head",up to two
